Activity data for 2 molecules are collected here from ChEMBL document CHEMBL5528002, “Identification of selective 5-LOX and FLAP inhibitors as novel anti-inflammatory agents by ligand-based virtual screening” (Eur J Med Chem, 2024).

Assay [1] addresses T1, Polyunsaturated fatty acid 5-lipoxygenase (Homo sapiens) (UniProt P09917).
T1 sequence (whole entry): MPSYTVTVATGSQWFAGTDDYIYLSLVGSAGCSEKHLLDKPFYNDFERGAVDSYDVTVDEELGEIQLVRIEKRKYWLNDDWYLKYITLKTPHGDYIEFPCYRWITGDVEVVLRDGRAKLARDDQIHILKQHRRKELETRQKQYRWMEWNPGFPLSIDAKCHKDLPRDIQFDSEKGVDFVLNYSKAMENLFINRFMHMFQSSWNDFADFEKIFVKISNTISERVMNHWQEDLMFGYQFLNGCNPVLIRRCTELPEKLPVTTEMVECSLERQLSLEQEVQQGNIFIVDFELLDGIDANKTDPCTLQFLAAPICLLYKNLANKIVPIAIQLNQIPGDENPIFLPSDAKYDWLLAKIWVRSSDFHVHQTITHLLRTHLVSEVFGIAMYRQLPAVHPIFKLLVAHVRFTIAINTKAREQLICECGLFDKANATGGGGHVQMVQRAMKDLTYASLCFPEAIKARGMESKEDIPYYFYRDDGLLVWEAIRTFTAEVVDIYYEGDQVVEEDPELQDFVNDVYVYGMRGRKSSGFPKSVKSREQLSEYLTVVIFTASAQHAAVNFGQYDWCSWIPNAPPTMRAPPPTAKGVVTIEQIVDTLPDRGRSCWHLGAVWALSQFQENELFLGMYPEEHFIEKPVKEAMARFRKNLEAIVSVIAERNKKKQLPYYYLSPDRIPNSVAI
In words: Inhibition of 5-LOX in human Neutrophil assessed as enzyme remaining activity at 10 uM using arachidonic acid as substrate preincubated with compound for 15 mins followed by substrate and A23187 addition measured after 10 mins by RP-HPLC analysis relative to control. The assay is classed as cell-based. As to conditions: time 25.0 min.

The subject of assay [2] is Macrophage cell line. In words: Effect on lipid mediator formation in human M1-like phenotype MDM cells by measuring 5-HEPE formation at 10 uM pre-incubated for 15 mins followed by SACM stimulation and measured after 90 mins by UPLC-MS/MS analysis (reference value: 560 +/- 160 pg/ml). Format: functional. As to conditions: time 105 min, 1.75 h.
For assay [3], the system named is Macrophage cell line. In words: Effect on lipid mediator formation in human M1-like phenotype MDM cells by measuring 5-HETE formation at 10 uM pre-incubated for 15 mins followed by SACM stimulation and measured after 90 mins by UPLC-MS/MS analysis (reference value: 5357 +/- 1561 pg/ml). The assay is classed as functional. As to conditions: time 105 min, 1.75 h.

Assay [4] concerns Macrophage cell line. In words: Effect on lipid mediator formation in human M1-like phenotype MDM cells by measuring LTB4 formation at 10 uM pre-incubated for 15 mins followed by SACM stimulation and measured after 90 mins by UPLC-MS/MS analysis (reference value: 1413 +/- 452 pg/ml). Format: functional. As to conditions: time 105 min, 1.75 h.
Assay [5] has as its system Macrophage cell line. In words: Effect on lipid mediator formation in human M1-like phenotype MDM cells by measuring 15-HETE formation at 10 uM pre-incubated for 15 mins followed by SACM stimulation and measured after 90 mins by UPLC-MS/MS analysis (reference value: 910 +/- 229 pg/ml). The assay is classed as functional. As to conditions: time 105 min, 1.75 h.
Assay [6] deals with Macrophage cell line. In words: Effect on lipid mediator formation in human M1-like phenotype MDM cells by measuring 5,15-diHETE formation at 10 uM pre-incubated for 15 mins followed by SACM stimulation and measured after 90 mins by UPLC-MS/MS analysis (reference value: 122 +/- 58 pg/ml). Format: functional. As to conditions: time 105 min, 1.75 h.
Assay [7] deals with Macrophage cell line. In words: Effect on lipid mediator formation in human M1-like phenotype MDM cells by measuring 5-HEPE formation at 10 uM pre-incubated for 15 mins followed by SACM stimulation and measured after 90 mins by UPLC-MS/MS analysis relative to control. Format: functional. As to conditions: time 105 min, 1.75 h.
Assay [8] deals with Macrophage cell line. In words: Effect on lipid mediator formation in human M1-like phenotype MDM cells by measuring PGD2 formation at 10 uM pre-incubated for 15 mins followed by SACM stimulation and measured after 90 mins by UPLC-MS/MS analysis relative to control. The assay is classed as functional. As to conditions: time 105 min, 1.75 h.
Assay [9] has as its system Macrophage cell line. In words: Effect on lipid mediator formation in human M1-like phenotype MDM cells by measuring 14-HDHA formation at 10 uM pre-incubated for 15 mins followed by SACM stimulation and measured after 90 mins by UPLC-MS/MS analysis relative to control. The assay is classed as functional. As to conditions: time 105 min, 1.75 h.
For assay [10], the system named is Macrophage cell line. In words: Effect on lipid mediator formation in human M2-like phenotype MDM cells by measuring LTB4 formation at 10 uM pre-incubated for 15 mins followed by SACM stimulation and measured after 90 mins by UPLC-MS/MS analysis (reference value: 509 +/- 30 pg/ml). Format: functional. As to conditions: time 105 min, 1.75 h.
In assay [11] the test system is Macrophage cell line. In words: Effect on lipid mediator formation in human M2-like phenotype MDM cells by measuring 17-HDHA formation at 10 uM pre-incubated for 15 mins followed by SACM stimulation and measured after 90 mins by UPLC-MS/MS analysis (reference value: 4702 +/- 885 pg/ml). Format: functional. As to conditions: time 105 min, 1.75 h.
Assay [12] concerns Macrophage cell line. In words: Effect on lipid mediator formation in human M2-like phenotype MDM cells by measuring RvD1 formation at 10 uM pre-incubated for 15 mins followed by SACM stimulation and measured after 90 mins by UPLC-MS/MS analysis (reference value: 5 +/- 2 pg/ml). The assay is classed as functional. As to conditions: time 105 min, 1.75 h.
Assay [13] concerns Macrophage cell line. In words: Effect on lipid mediator formation in human M2-like phenotype MDM cells by measuring EPA formation at 10 uM pre-incubated for 15 mins followed by SACM stimulation and measured after 90 mins by UPLC-MS/MS analysis (reference value: 23813 +/- 1138 pg/ml). As to conditions: time 105 min, 1.75 h. Format: functional.
The subject of assay [14] is Macrophage cell line. In words: Effect on lipid mediator formation in human M2-like phenotype MDM cells by measuring DHA formation at 10 uM pre-incubated for 15 mins followed by SACM stimulation and measured after 90 mins by UPLC-MS/MS analysis (reference value: 50400 +/- 3051 pg/ml). Format: functional. As to conditions: time 105 min, 1.75 h.
Assay [15] concerns Macrophage cell line. In words: Effect on lipid mediator formation in human M2-like phenotype MDM cells by measuring 5-HETE formation at 10 uM pre-incubated for 15 mins followed by SACM stimulation and measured after 90 mins by UPLC-MS/MS analysis relative to control. Format: functional. As to conditions: time 105 min, 1.75 h.
The subject of assay [16] is Macrophage cell line. In words: Effect on lipid mediator formation in human M2-like phenotype MDM cells by measuring TXB2 formation at 10 uM pre-incubated for 15 mins followed by SACM stimulation and measured after 90 mins by UPLC-MS/MS analysis relative to control. As to conditions: time 105 min, 1.75 h. The assay is classed as functional.
The test system of assay [17] is Macrophage cell line. In words: Effect on lipid mediator formation in human M2-like phenotype MDM cells by measuring 15-HEPE formation at 10 uM pre-incubated for 15 mins followed by SACM stimulation and measured after 90 mins by UPLC-MS/MS analysis relative to control. The assay is classed as functional. As to conditions: time 105 min, 1.75 h.
Assay [18] relates to Macrophage cell line. In words: Effect on lipid mediator formation in human M2-like phenotype MDM cells by measuring 12-HEPE formation at 10 uM pre-incubated for 15 mins followed by SACM stimulation and measured after 90 mins by UPLC-MS/MS analysis relative to control. Format: functional. As to conditions: time 105 min, 1.75 h.
The test system of assay [19] is Macrophage cell line. In words: Effect on lipid mediator formation in human M2-like phenotype MDM cells by measuring PDX1 formation at 10 uM pre-incubated for 15 mins followed by SACM stimulation and measured after 90 mins by UPLC-MS/MS analysis relative to control. The assay is classed as functional. As to conditions: time 105 min, 1.75 h.
Assay [20] concerns Macrophage cell line. In words: Effect on lipid mediator formation in human M2-like phenotype MDM cells by measuring MaR1 formation at 10 uM pre-incubated for 15 mins followed by SACM stimulation and measured after 90 mins by UPLC-MS/MS analysis relative to control. Format: functional. As to conditions: time 105 min, 1.75 h.

Regarding `COc1ccc(C2=C/C(=C/c3ccc(O)cc3O)C(=O)O2)cc1`, the Activity in [1] was determined as 18.6%; in the assay on Macrophage cell line [2], 62 pg/mL; in the assay with Macrophage cell line [3] it was 361 pg/mL; in the assay on Macrophage cell line [4], 115 pg/mL; with Macrophage cell line [5], 823 pg/mL; with Macrophage cell line [6], 16 pg/mL. Besides, the Activity stood at 11% with Macrophage cell line [7]; 157% in the assay on Macrophage cell line [8]; 94% in the assay with Macrophage cell line [9]; 22 pg/mL in the assay with Macrophage cell line [10]; 8152 pg/mL in the assay on Macrophage cell line [11]; 6 pg/mL in the assay with Macrophage cell line [12]. Besides, the Activity is 24465 pg/mL in the assay on Macrophage cell line [13]; 53610 pg/mL in the assay on Macrophage cell line [14]; 9% in the assay on Macrophage cell line [15]; 76% in the assay on Macrophage cell line [16]; 157% with Macrophage cell line [17]; 144% in the assay with Macrophage cell line [18]. Further, the Activity amounted to 144% in the assay with Macrophage cell line [19] and 189% with Macrophage cell line [20].
Regarding `Oc1ccc(CCC2CCC(c3ccc(O)cc3)CO2)cc1` (stereo not given), the Activity in assay [1] was determined as 24.3%; in the assay on Macrophage cell line [2] it was 98 pg/mL; in the assay with Macrophage cell line [3], 695 pg/mL; in the assay with Macrophage cell line [4], 79 pg/mL; in the assay on Macrophage cell line [5], 776 pg/mL; in the assay with Macrophage cell line [6] it was 37 pg/mL. Also, the Activity in the assay on Macrophage cell line [7] was found to be 18%; in the assay with Macrophage cell line [8] it was 88%; with Macrophage cell line [9] it was 89%; in the assay with Macrophage cell line [10], 71 pg/mL; in the assay with Macrophage cell line [11], 6992 pg/mL; with Macrophage cell line [12], 4 pg/mL. Further, the Activity with Macrophage cell line [13] was 28427 pg/mL; in the assay on Macrophage cell line [14], 53713 pg/mL; in the assay on Macrophage cell line [15], 25%; with Macrophage cell line [16] it was 86%; in the assay on Macrophage cell line [17] it was 140%; in the assay with Macrophage cell line [18] it was 128%. Moreover, the Activity was 116% with Macrophage cell line [19] and 106% in the assay with Macrophage cell line [20].
